Source: paper PMC3739731, “Pharmacological Inhibition of polysialyltransferase ST8SiaII Modulates Tumour Cell Migration” (PLoS ONE, 2013)

Columns and labels:
ST8SiaII [1] = target: T1, ST8SiaII (Homo sapiens, UniProt Q92186); test: HPLC assay of DMB-DP3 polysialylation with recombinant human ST8SiaII, Dixon plot; type: biochemical
T1 construct: gene ST8SIA2
T1 sequence (Q92186 1-375): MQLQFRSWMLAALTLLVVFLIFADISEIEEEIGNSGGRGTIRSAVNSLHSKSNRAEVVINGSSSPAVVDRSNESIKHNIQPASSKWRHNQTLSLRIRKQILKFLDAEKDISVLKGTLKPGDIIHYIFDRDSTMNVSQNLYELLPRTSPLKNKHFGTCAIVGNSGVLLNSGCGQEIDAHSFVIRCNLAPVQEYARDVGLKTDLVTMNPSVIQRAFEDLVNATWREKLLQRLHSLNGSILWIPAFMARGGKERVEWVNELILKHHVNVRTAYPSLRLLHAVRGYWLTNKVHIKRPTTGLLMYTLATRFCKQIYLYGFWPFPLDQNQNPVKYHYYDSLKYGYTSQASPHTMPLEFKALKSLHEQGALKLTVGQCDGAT

ST8SiaII [2] = target: T1, ST8SiaII; test: HPLC-fluorescence enzyme kinetics, Lineweaver-Burk (Km); type: biochemical

Compound	Ki (ST8SiaII [1])	Km (ST8SiaII [2])
Nc1ccn([C@@H]2O[C@H](COP(=O)(O)O)[C@@H](O)[C@H]2O)c(=O)n1 [CMP]	10 µM	–
DMB-DP3	–	38.9 µM
